{
  "source": "patent US10577349B2",
  "about": "(Sanford Burnham Prebys Medical Discovery Institute, priority 2015, dated 2020)",
  "key": {"[1]": {"molecular_target": "HCV cap-independent translation", "experiment": "In vitro translation assay, FF-HCV-Ren construct, cap-independent (Ren luciferase)", "assay_type": "biochemical, rabbit reticulocyte lysates", "source_text": "(§1) The bicistronic dual-reporter constructs that contain the firefly luciferase (FF) sequence, followed by the (encephalomyocarditis virus) EmCV and Hepatitis C virus (HCV) IRES, respectively, and the Renilla reniformis (Ren) luciferase sequence, has been previously described (Bordeleau Me., et al. Functional characterization of IRESes by an inhibitor of the RNA helicase eIF4A. Nature chemical biology. 2006; 2:213-20). For measurement of translation from the FF-EmCV-Ren and FF-HCV-Ren constructs, rabbit reticulocyte lysates (RRL) (Life Technologies, Carlsbad, Calif., USA) and the Dual-Glo (Promega, Madison, Wis., USA) read-outs were chosen. Two μl rabbit reticulocyte lysates mixed with Translation Mix 20× (-Met) and Translation Mix 20× (-Leu) in a ratio of 1:1 were pre-incubated with test compounds in 1536-well plates for 1 h at room temperature. Then, translation was started by adding 0.1 μg RNA per well and incubated for 2 h at 30° C. After a short chill phase, 2.5 μl Dual-Glo reagent 1 was added to each well and incubated for 10 min before reading the FF luciferase activity with the ViewLux uHTS Microplate Imager (Perkin Elmer, Waltham, Mass., USA). Directly after, 2.5 μl Dual-Glo reagent 2 was dispensed to each well and incubated at room temperature for 10 min before reading the Ren luciferase activity on the ViewLux. To exclude the possibility that test compounds interfere with any of the luciferase activities, a counter assay was performed in which the compounds were added after the completion of the in vitro translation."}, "[2]": {"molecular_target": "EmCV Cap-dependent translation", "experiment": "In vitro translation assay, FF-EmCV-Ren construct, cap-dependent (FF luciferase)", "assay_type": "biochemical, rabbit reticulocyte lysates", "source_text": "as §1"}, "A375": {"system": "A375", "experiment": "48 h Cytotoxicity A375", "assay_type": "cell-based", "conditions": "Homo sapiens, A-375"}, "[3]": {"molecular_target": "HCV cap-dependent translation", "experiment": "In vitro translation assay, FF-HCV-Ren construct, cap-dependent (FF luciferase)", "assay_type": "biochemical, rabbit reticulocyte lysates", "source_text": "as §1"}, "[4]": {"molecular_target": "EmCV Cap-independent translation", "experiment": "In vitro translation assay, FF-EmCV-Ren construct, cap-independent (Ren luciferase)", "assay_type": "biochemical, rabbit reticulocyte lysates", "source_text": "as §1"}},
  "data": [
    {"molecule": "O=C(/C=C/c1nc2ccccc2[nH]1)c1c(-c2ccc(OC(F)(F)F)cc2)c2cc(Cl)ccc2[nH]c1=O", "note": "[Compound 2, 3-(3-1H-Benzoimidazol-2-yl-acryloyl)-6-chloro-4-(4-trifluoromethoxy-phenyl)-1H-quinolin-2-one]", "values": [
      {"measurement": "IC50", "setting": "[1]", "value": "2 to 10", "unit": "µM"},
      {"measurement": "IC50", "setting": "[2]", "value": "2 to 10", "unit": "µM"},
      {"measurement": "IC50", "setting": "A375", "value": "< 2", "unit": "µM"},
      {"measurement": "IC50", "setting": "[3]", "value": "2 to 10", "unit": "µM"},
      {"measurement": "IC50", "setting": "[4]", "value": "2 to 10", "unit": "µM"}
    ]},
    {"molecule": "O=C(/C=C/c1ccc(Br)cn1)c1c(-c2ccccc2)c2cc(Cl)ccc2[nH]c1=O", "note": "[Compound 47, 3-[3-(5-Bromo-pyridin-2-yl)-acryloyl]-6-chloro-4-phenyl-1H-quinolin-2-one]", "values": [
      {"measurement": "IC50", "setting": "[1]", "value": "2 to 10", "unit": "µM"},
      {"measurement": "IC50", "setting": "[2]", "value": "2 to 10", "unit": "µM"},
      {"measurement": "IC50", "setting": "A375", "value": "< 2", "unit": "µM"},
      {"measurement": "IC50", "setting": "[3]", "value": "2 to 10", "unit": "µM"},
      {"measurement": "IC50", "setting": "[4]", "value": "2 to 10", "unit": "µM"}
    ]},
    {"molecule": "COc1ccc2[nH]c(=O)c(C(=O)/C=C/c3nc4ccccc4[nH]3)c(-c3ccccc3)c2c1", "note": "[Compound 21, 3-(3-1H-Benzoimidazol-2-yl-acryloyl)-6-methoxy-4-phenyl-1H-quinolin-2-one]", "values": [
      {"measurement": "IC50", "setting": "[1]", "value": "10 to 20", "unit": "µM"},
      {"measurement": "IC50", "setting": "[2]", "value": "10 to 20", "unit": "µM"},
      {"measurement": "IC50", "setting": "A375", "value": "2 to 10", "unit": "µM"},
      {"measurement": "IC50", "setting": "[3]", "value": "> 20", "unit": "µM"},
      {"measurement": "IC50", "setting": "[4]", "value": "10 to 20", "unit": "µM"}
    ]},
    {"molecule": "O=C(/C=C/c1nc2ccccc2[nH]1)c1c(-c2ccccc2)c2cnccc2[nH]c1=O", "note": "[Compound 24, 3-(3-1H-Benzoimidazol-2-yl-acryloyl)-4-phenyl-1H-[1,6]naphthyridin-2-one]", "values": [
      {"measurement": "IC50", "setting": "[1]", "value": "10 to 20", "unit": "µM"},
      {"measurement": "IC50", "setting": "[2]", "value": "2 to 10", "unit": "µM"},
      {"measurement": "IC50", "setting": "A375", "value": "< 2", "unit": "µM"},
      {"measurement": "IC50", "setting": "[3]", "value": "10 to 20", "unit": "µM"},
      {"measurement": "IC50", "setting": "[4]", "value": "2 to 10", "unit": "µM"}
    ]},
    {"molecule": "CCn1c(/C=C/C(=O)c2c(-c3ccccc3)c3cc(Cl)ccc3[nH]c2=O)nc2ccccc21", "note": "[Compound 58, 6-Chloro-3-[3-(1-ethyl-1H-benzoimidazol-2-yl)-acryloyl]-4-phenyl-1H-quinolin-2-one]", "values": [
      {"measurement": "IC50", "setting": "[1]", "value": "2 to 10", "unit": "µM"},
      {"measurement": "IC50", "setting": "[2]", "value": "2 to 10", "unit": "µM"},
      {"measurement": "IC50", "setting": "A375", "value": "2 to 10", "unit": "µM"},
      {"measurement": "IC50", "setting": "[3]", "value": "2 to 10", "unit": "µM"},
      {"measurement": "IC50", "setting": "[4]", "value": "2 to 10", "unit": "µM"}
    ]},
    {"molecule": "O=C(/C=C/c1ccc(F)c(F)c1)c1c(-c2ccccc2)c2cc(Cl)ccc2[nH]c1=O", "note": "[Compound 40, 6-Chloro-3-[3-(3,4-difluoro-phenyl)-acryloyl]-4-phenyl-1H-quinolin-2-one]", "values": [
      {"measurement": "IC50", "setting": "[1]", "value": "2 to 10", "unit": "µM"},
      {"measurement": "IC50", "setting": "[2]", "value": "2 to 10", "unit": "µM"},
      {"measurement": "IC50", "setting": "A375", "value": "< 2", "unit": "µM"},
      {"measurement": "IC50", "setting": "[3]", "value": "2 to 10", "unit": "µM"},
      {"measurement": "IC50", "setting": "[4]", "value": "2 to 10", "unit": "µM"}
    ]},
    {"molecule": "O=C(/C=C/c1ccc(Cl)cc1)c1c(-c2ccccc2)c2cc(Cl)ccc2[nH]c1=O", "note": "[Compound 33, 6-Chloro-3-[3-(4-chloro-phenyl)-acryloyl]-4-phenyl-1H-quinolin-2-one]", "values": [
      {"measurement": "IC50", "setting": "[1]", "value": "2 to 10", "unit": "µM"},
      {"measurement": "IC50", "setting": "[2]", "value": "2 to 10", "unit": "µM"},
      {"measurement": "IC50", "setting": "A375", "value": "2 to 10", "unit": "µM"},
      {"measurement": "IC50", "setting": "[3]", "value": "2 to 10", "unit": "µM"},
      {"measurement": "IC50", "setting": "[4]", "value": "2 to 10", "unit": "µM"}
    ]},
    {"molecule": "O=C(/C=C/c1ccccc1)c1c(-c2ccccc2)c2cc(Cl)ccc2[nH]c1=O", "note": "[Compound 31, 6-Chloro-4-phenyl-3-(3-phenyl-acryloyl)-1H-quinolin-2-one]", "values": [
      {"measurement": "IC50", "setting": "[1]", "value": "2 to 10", "unit": "µM"},
      {"measurement": "IC50", "setting": "[2]", "value": "2 to 10", "unit": "µM"},
      {"measurement": "IC50", "setting": "A375", "value": "2 to 10", "unit": "µM"},
      {"measurement": "IC50", "setting": "[3]", "value": "2 to 10", "unit": "µM"},
      {"measurement": "IC50", "setting": "[4]", "value": "2 to 10", "unit": "µM"}
    ]},
    {"molecule": "N#Cc1cncc(-c2c(C(=O)/C=C/c3ccccn3)c(=O)[nH]c3ccc(Cl)cc23)c1", "note": "[Compound 106, 5-[3-((2E)-3-(2-pyridyl)prop-2-enoyl)-6-chloro-2-oxo-4-hydroquinolyl]pyridine-3-carbonitrile]", "values": [
      {"measurement": "IC50", "setting": "[1]", "value": "10 to 20", "unit": "µM"},
      {"measurement": "IC50", "setting": "[2]", "value": "> 20", "unit": "µM"},
      {"measurement": "IC50", "setting": "A375", "value": "< 2", "unit": "µM"},
      {"measurement": "IC50", "setting": "[3]", "value": "> 20", "unit": "µM"},
      {"measurement": "IC50", "setting": "[4]", "value": "10 to 20", "unit": "µM"}
    ]},
    {"molecule": "N#Cc1ccc(-c2c(C(=O)/C=C/c3cncc(F)c3)c(=O)[nH]c3ccc(Cl)cc23)cc1", "note": "[Compound 89]", "values": [
      {"measurement": "IC50", "setting": "[1]", "value": "2 to 10", "unit": "µM"},
      {"measurement": "IC50", "setting": "[2]", "value": "2 to 10", "unit": "µM"},
      {"measurement": "IC50", "setting": "A375", "value": "2 to 10", "unit": "µM"},
      {"measurement": "IC50", "setting": "[3]", "value": "2 to 10", "unit": "µM"},
      {"measurement": "IC50", "setting": "[4]", "value": "2 to 10", "unit": "µM"}
    ]},
    {"molecule": "O=C(/C=C/c1ccc(F)cc1C(F)(F)F)c1c(-c2ccccc2)c2cc(Cl)ccc2[nH]c1=O", "note": "[Compound 49, 6-Chloro-3-[3-(4-fluoro-2-trifluoromethyl-phenyl)-acryloyl]-4-phenyl-1H-quinolin-2-one]", "values": [
      {"measurement": "IC50", "setting": "[1]", "value": "2 to 10", "unit": "µM"},
      {"measurement": "IC50", "setting": "[2]", "value": "2 to 10", "unit": "µM"},
      {"measurement": "IC50", "setting": "A375", "value": "< 2", "unit": "µM"},
      {"measurement": "IC50", "setting": "[3]", "value": "2 to 10", "unit": "µM"},
      {"measurement": "IC50", "setting": "[4]", "value": "2 to 10", "unit": "µM"}
    ]},
    {"molecule": "O=C(/C=C/c1nc2cc(Cl)c(Cl)cc2[nH]1)c1c(-c2ccccc2)c2cc(Cl)ccc2[nH]c1=O", "note": "[Compound 63, 6-Chloro-3-[3-(5,6-dichloro-1H-benzoimidazol-2-yl)-acryloyl]-4-phenyl-1H-quinolin-2-one]", "values": [
      {"measurement": "IC50", "setting": "[1]", "value": "2 to 10", "unit": "µM"},
      {"measurement": "IC50", "setting": "[2]", "value": "2 to 10", "unit": "µM"},
      {"measurement": "IC50", "setting": "A375", "value": "2 to 10", "unit": "µM"},
      {"measurement": "IC50", "setting": "[3]", "value": "2 to 10", "unit": "µM"},
      {"measurement": "IC50", "setting": "[4]", "value": "2 to 10", "unit": "µM"}
    ]},
    {"molecule": "O=C(/C=C/c1cnccn1)c1c(-c2ccccc2)c2cc(Cl)ccc2[nH]c1=O", "note": "[Compound 52, 6-Chloro-4-phenyl-3-(3-pyrazin-2-yl-acryloyl)-1H-quinolin-2-one]", "values": [
      {"measurement": "IC50", "setting": "[1]", "value": "2 to 10", "unit": "µM"},
      {"measurement": "IC50", "setting": "[2]", "value": "2 to 10", "unit": "µM"},
      {"measurement": "IC50", "setting": "A375", "value": "2 to 10", "unit": "µM"},
      {"measurement": "IC50", "setting": "[3]", "value": "10 to 20", "unit": "µM"},
      {"measurement": "IC50", "setting": "[4]", "value": "2 to 10", "unit": "µM"}
    ]}
  ]
}
